The nature of this data set: solvent given as SMILES.

This note sets out measurements from the Deep4Chem optical property database.

Take `CC1=C(c2cccs2)C(C)=[N+]2C1=C(c1ccc(O)cc1)c1c(C)c(-c3cccs3)c(C)n1[B-]2(F)F`: the fluorescence lifetime (in Cc1ccccc1) amounted to 3.8 ns.

Take `Cc1ccc2ccccc2c1`: the fluorescence lifetime (in C1CCCCC1) is 114 ns.

For the setting “in O=P(c1ccccc1)(c1ccccc1)c1ccc2oc3ccc(P(=O)(c4ccccc4)c4ccccc4)cc3c2c1”, `Cc1cccc2c3ccccc3n(-c3ccc(-c4c(-c5ccccc5)c(C#N)c(C#N)c(-c5ccccc5)c4-c4ccc(-n5c6ccccc6c6cccc(C)c65)cc4)cc3)c12` had a fluorescence lifetime of 41 ns.

As for `Nc1nc2ccc([N+](=O)[O-])cc2s1`, the fluorescence lifetime was 4.11 ns (in CC#N) and 3.53 ns (in ClCCl).

For the compound `CCCCCCOc1ccc2oc3c(c2c1)=CC1=C(c2ccccc2C)c2cc4c5cc(OCCCCCC)ccc5oc4n2[B-](F)(F)[N+]=31`, the fluorescence lifetime was 4.12 ns (in C1CCCCC1), 3.81 ns (in CCOC(C)=O) and 1.67 ns (in CO).

As to `Nc1ncc2nc[nH]c2n1`, the fluorescence lifetime (in O) came to 11.3 ns.

Regarding `NCc1ccc2ccc3cccc4ccc1c2c34`, the fluorescence lifetime turned out to be 232 ns (in CC#N), 119 ns (in CO) and 38 ns (in ClC(Cl)Cl).

With `CC1=[N+]2C(=C(NCc3ccccc3)c3ccc(C)n3[B-]2(F)F)C=C1c1cc2n(c1)[B-](F)(F)[N+]1=CC=CC1=C2c1c(C)cc(C)cc1C`, the fluorescence lifetime was 2.19 ns (in C1CCCCC1) and 0.54 ns (in CCOC(C)=O).

Consider `COC(=O)/C=C/c1ccc2ccc3cccc4ccc1c2c34`, for which the fluorescence lifetime is 2.8 ns (in C1CCOC1), 2.4 ns (in CC#N) and 2.6 ns (in CC(C)=O).

Where the note is “in C1CCCCC1”, `CC(=O)c1ccc(-c2nc3ccc(N(C)C)cc3s2)cc1` registered a fluorescence lifetime of 2.2 ns.

On to `CCCCC(CC)COc1ccc2nc(-c3ccc(-c4ccc(N(C)C)cc4)s3)sc2c1` (stereo not drawn), for which, where the note is “in ClCCl”, the fluorescence lifetime worked out at 2.28 ns.

For the compound `COc1ccc2nc(/N=N/c3ccc(N(C)C)cc3)sc2c1`, the fluorescence lifetime is, setting by setting: (in CC#N) 4.92 ns; (in ClCCl) 4.98 ns.

The compound `F[B-]1(F)OC(c2ccc(C(F)(F)F)cc2)=Cc2c3ccccc3cc[n+]21` had a fluorescence lifetime (in ClC(Cl)Cl) of 0.14 ns.

For the compound `CCCCCc1c(C(=O)c2ccc3c4c(cccc24)-c2cccc4c2C3CC=C4)c2ccc3cccc4c5cccc6ccc1c(c65)c2c34` (stereo not drawn), for the setting “in ClCCl”, the fluorescence lifetime was 1.09 ns.

Turning to `CCCCn1c(-c2ccc(-c3nnc(-c4cccs4)o3)cc2)nc(-c2ccccc2)c1-c1ccccc1`, the fluorescence lifetime (in ClCCl) stood at 1.65 ns.

Regarding `c1ccc(N2c3ccc4ccccc4c3-c3c4ccccc4nc[n+]3[B-]2(c2ccccc2)c2ccccc2)cc1`, the fluorescence lifetime is, setting by setting: (in C1CCC2CCCCC2C1) 3.42 ns; (in C1CCCCC1) 3.43 ns; (in C1CCOC1) 0.54 ns; (in CC#N) 0.21 ns; (in CC(C)=O) 0.21 ns; (in CCCCCC) 3.4 ns. Further, the fluorescence lifetime reads like this: (in CCOC(C)=O) 0.57 ns; (in Cc1ccccc1) 1.56 ns; (in ClC(Cl)Cl) 0.49 ns.

Regarding `C/C=C/c1cc(OC)cc(OC)c1`, the fluorescence lifetime was found to be 2.9 ns (in CC#N) and 1.5 ns (in CCCCCC).

Take `N#Cc1c(-n2c3ccc(Br)cc3c3cc(Br)ccc32)c(-n2c3ccc(Br)cc3c3cc(Br)ccc32)c(C#N)c(-n2c3ccc(Br)cc3c3cc(Br)ccc32)c1-n1c2ccc(Br)cc2c2cc(Br)ccc21`: the fluorescence lifetime (in Cc1ccccc1) amounted to 0.3 ns.

Under “in C1CCOC1”, `COc1ccc(C(=Cc2ccc(/C=C(\C#N)c3ccc([N+](=O)[O-])cc3)cc2)c2ccc(OC)cc2)cc1` showed a fluorescence lifetime of 1.4 ns.

Consider `O=C([O-])c1ccc(C(=O)[O-])c2cc3ccccc3cc12`, for which the fluorescence lifetime (in CN(C)C=O) turned out to be 1 ns.

With `CC(C)(C)C#Cc1cc2c(C#CC(C)(C)C)c(C#CC(C)(C)C)c3cc(C#CC(C)(C)C)cc4c(C#CC(C)(C)C)c(C#CC(C)(C)C)c(c1)c2c34`, the fluorescence lifetime (in ClCCl) was found to be 22.3 ns.

Take `Cc1nc2c(ccc3ccc(O)cc32)oc1=O`: where the note is “in c1ccccc1”, the fluorescence lifetime is 3.9 ns.

As for `C=Cc1ccc(OC)cc1`, the fluorescence lifetime is, setting by setting: (in C1CCCCC1) 6.6 ns; (in CC#N) 6.3 ns.

The compound `c1ccc2c(-n3c(-c4ccc(-c5ccc(-c6nc7c8ccccc8c8ccccc8c7n6-c6cccc7ccccc67)c6ccccc56)c5ccccc45)nc4c5ccccc5c5ccccc5c43)cccc2c1` had a fluorescence lifetime (in ClCCl) of 1.87 ns.
